Assay results from patent publication US5733719A, “Method of making an assay compound” (priority 1995, dated 1998).
Numbered stars: 1 amine (or outer) side, 2 acyl side, 3 side chain; on linkers, the order of the positions; unused ones are H or OH. Bridge positions count the residues as written; N and C are the ends. Peptide text beside a SMILES is read from it. I, II: the chains in the order shown. Rhodamine110 = O=C1OC2(c3ccc(N[*:1])cc3Oc3cc(N[*:2])ccc32)c2ccccc21

Experiments:
enzyme = assay: Effect of dithioerythritol (DTE) on substrate sensitivity; conditions: dithioerythritol (DTE) at 1 mM
Source text: Modulators are components used to […] the sensitivity of the enzyme for the leaving group. The modulators speed up or slow down the activity of an enzyme by changing the active site. […] Preferred modulators for particular enzymes are included in Table 1.

Lymphs = assay: Peptidases to distinguish leukemia from non-leukemia, lymphocytes; format: cell-based, human; set-up: unit not given here
Source text: (§1) Artificial intelligence was used to analyze data of cellular enzyme functions, and determine normal and disease states. Peptidases were used to distinguish leukemia from non-leukemia (output pattern). For input patterns lymphocyte and granulocyte cell types were used with aminopeptidases, cathepsins and dipeptidylpeptidase enzyme activities. In this Example, illustrated in Tables 6A-6C, three normals and three leukemia patients were used as known output patterns for the neural network to learn (in practice, the larger the learning set the more accurate unknown prediction will be). Unknowns were then presented to the learned algorithm as shown in the test case examples. Clinical diagnosis was confirmed by physicians. The trained neural network was able to correctly classify the leukemia from the non-leukemia.

Grans = assay: Peptidases to distinguish leukemia from non-leukemia, granulocytes; format: cell-based, human; set-up: unit not given here
Source text: as §1

In the case of CC(C)[C@H](N)C(=O)N[C@@H](CCCCN)C(=O)N[C@H](C(=O)N[C@@H](CCCCN)C(=O)Nc1ccc2c(c1)Oc1cc(NC(=O)[C@H](CCCCN)NC(=O)[C@@H](NC(=O)[C@H](CCCCN)NC(=O)[C@@H](N)C(C)C)C(C)C)ccc1C21OC(=O)c2ccccc21)C(C)C [Val-Lys-Val-Lys, (H--L--Val--Lys--Val--Lys)2 Rho 110-6TFA] (I: H-VKVK / II: H-VKVK; linker I:C-II:C via Rhodamine110), the “effect of DTE on sensitivity” value (enzyme) is reported as “decreases the sensitivity”.

For C[C@H](N)C(=O)N[C@@H](C)C(=O)Nc1ccc2c(c1)Oc1cc(NC(=O)[C@H](C)NC(=O)[C@H](C)N)ccc1C21OC(=O)c2ccccc21 [ALA-ALA*], the “effect of DTE on sensitivity” value (enzyme) was “decreases the sensitivity”.

C[C@H](N)C(=O)N[C@@H](C)C(=O)N[C@@H](C)C(=O)N[C@@H](C)C(=O)Nc1ccc2c(c1)Oc1cc(NC(=O)[C@H](C)NC(=O)[C@H](C)NC(=O)[C@H](C)NC(=O)[C@H](C)N)ccc1C21OC(=O)c2ccccc21 [Ala-Ala-Ala-Ala, (H--L Ala--Ala--Ala--Ala)2 Rho 110-2TFA] (I: H-AAAA / II: H-AAAA; linker I:C-II:C via Rhodamine110) was tested, and the “effect of DTE on sensitivity” value (enzyme) was “decreases the sensitivity”.

With O=C1OC2(c3ccc(NC(=O)[C@@H]4CCCN4)cc3Oc3cc(NC(=O)[C@@H]4CCCN4)ccc32)c2ccccc21 [PRO, (H--L--Pro)2 Rho 110-2TFA] the enzyme activity (Lymphs; J4 11/21/91 acute leuk.) was 0.47, the enzyme activity (Lymphs; J4 12/2/91 AL) was 0.29 and the enzyme activity (Lymphs; J4 12/3/91 acute leuk.) was 0.24. It also gave an enzyme activity (Lymphs; J5 11/27/91 AML) of 0.89, an enzyme activity (Lymphs; J19 11/27/91 CLL) of 0.44 and an enzyme activity (Lymphs; J22 12/2/91 AML) of 0.40. For the same molecule, the enzyme activity (Lymphs; J22 12/9/91 AML) was 0.44, the enzyme activity (Lymphs; N99° normal) was 1.02 and the enzyme activity (Lymphs; N191 normal) was 0.69. The enzyme activity (Lymphs; N192 normal) was 1.14, the enzyme activity (Lymphs; N193 normal) was 0.95 and the enzyme activity (Lymphs; N194 normal) was 0.86. For the same molecule, the enzyme activity (Lymphs; N195 normal) was 0.88, the enzyme activity (Lymphs; N197 normal) was 0.57 and the enzyme activity (Lymphs; N200 normal) was 0.74. It also gave an enzyme activity (Lymphs; N201 normal) of 1.10, an enzyme activity (Lymphs; N202 normal) of 0.89 and an enzyme activity (Lymphs; N206 normal) of 1.28. It also gave an enzyme activity (Lymphs; P68 tachycardia) of 0.70, an enzyme activity (Lymphs; P69 pancreatic CA) of 0.66 and an enzyme activity (Lymphs; P70 cirrhosis/hemobilia) of 0.56. The enzyme activity (Lymphs; P71 ac. pyelonephritis) was 0.52, the enzyme activity (Grans; J4 11/21/91 acute leuk.) was 5.77 and the enzyme activity (Grans; J4 12/2/91 AL) was 3.59. It also gave an enzyme activity (Grans; J4 12/3/91 acute leuk.) of 3.68, an enzyme activity (Grans; J5 11/27/91 AML) of 5.92 and an enzyme activity (Grans; J19 11/27/91 CLL) of 5.50. For the same molecule, the enzyme activity (Grans; J22 12/2/91 AML) was 4.03, the enzyme activity (Grans; J22 12/9/91 AML) was 3.53 and the enzyme activity (Grans; N99° normal) was 4.85. It also gave an enzyme activity (Grans; N191 normal) of 4.34, an enzyme activity (Grans; N192 normal) of 4.34 and an enzyme activity (Grans; N193 normal) of 4.75. It also gave an enzyme activity (Grans; N194 normal) of 3.75, an enzyme activity (Grans; N195 normal) of 4.70 and an enzyme activity (Grans; N197 normal) of 3.76. The enzyme activity (Grans; N200 normal) was 4.04, the enzyme activity (Grans; N201 normal) was 6.42 and the enzyme activity (Grans; N202 normal) was 4.96. The enzyme activity (Grans; N206 normal) was 6.13, the enzyme activity (Grans; P68 tachycardia) was 7.19 and the enzyme activity (Grans; P69 pancreatic CA) was 5.70. For the same molecule, the enzyme activity (Grans; P70 cirrhosis/hemobilia) was 0.66, the enzyme activity (Grans; P71 ac. pyelonephritis) was 6.33 and the “effect of DTE on sensitivity” value (enzyme) was “decreases the sensitivity”.

NC(=O)CC[C@H](N)C(=O)N[C@@H](CO)C(=O)Nc1ccc2c(c1)Oc1cc(NC(=O)[C@H](CO)NC(=O)[C@@H](N)CCC(N)=O)ccc1C21OC(=O)c2ccccc21 (relative stereo) [GLN-SER*] was tested, and the “effect of DTE on sensitivity” value (enzyme) was “decreases the sensitivity”.

CC(C)C[C@H](N)C(=O)NCC(=O)Nc1ccc2c(c1)Oc1cc(NC(=O)CNC(=O)[C@@H](N)CC(C)C)ccc1C21OC(=O)c2ccccc21 [LG] was tested, and the enzyme activity (Lymphs; J4 11/21/91 acute leuk.) was 0.16, the enzyme activity (Lymphs; J4 12/2/91 AL) was 0.18 and the enzyme activity (Lymphs; J4 12/3/91 acute leuk.) was 0.19. It also gave an enzyme activity (Lymphs; J5 11/27/91 AML) of 0.23, an enzyme activity (Lymphs; J19 11/27/91 CLL) of 0.02 and an enzyme activity (Lymphs; J22 12/2/91 AML) of 0.02. It also gave an enzyme activity (Lymphs; J22 12/9/91 AML) of 0.61, an enzyme activity (Lymphs; N99° normal) of 0.85 and an enzyme activity (Lymphs; N191 normal) of 2.42. For the same molecule, the enzyme activity (Lymphs; N192 normal) was 3.45, the enzyme activity (Lymphs; N193 normal) was 1.56 and the enzyme activity (Lymphs; N194 normal) was 2.06. The enzyme activity (Lymphs; N195 normal) was 1.93, the enzyme activity (Lymphs; N197 normal) was 1.79 and the enzyme activity (Lymphs; N200 normal) was 1.55. For the same molecule, the enzyme activity (Lymphs; N201 normal) was 1.57, the enzyme activity (Lymphs; N202 normal) was 1.28 and the enzyme activity (Lymphs; N206 normal) was 3.12. For the same molecule, the enzyme activity (Lymphs; P68 tachycardia) was 0.78, the enzyme activity (Lymphs; P69 pancreatic CA) was 2.00 and the enzyme activity (Lymphs; P70 cirrhosis/hemobilia) was 0.79. It also gave an enzyme activity (Lymphs; P71 ac. pyelonephritis) of 0.68, an enzyme activity (Grans; J4 11/21/91 acute leuk.) of 0.85 and an enzyme activity (Grans; J4 12/2/91 AL) of 0.79. For the same molecule, the enzyme activity (Grans; J4 12/3/91 acute leuk.) was 1.06, the enzyme activity (Grans; J5 11/27/91 AML) was 2.51 and the enzyme activity (Grans; J19 11/27/91 CLL) was 36.35. For the same molecule, the enzyme activity (Grans; J22 12/2/91 AML) was 1.56, the enzyme activity (Grans; J22 12/9/91 AML) was 1.94 and the enzyme activity (Grans; N99° normal) was 2.022. It also gave an enzyme activity (Grans; N191 normal) of 5.37, an enzyme activity (Grans; N192 normal) of 6.78 and an enzyme activity (Grans; N193 normal) of 3.65. For the same molecule, the enzyme activity (Grans; N194 normal) was 3.52, the enzyme activity (Grans; N195 normal) was 4.11 and the enzyme activity (Grans; N197 normal) was 4.41. It also gave an enzyme activity (Grans; N200 normal) of 3.40, an enzyme activity (Grans; N201 normal) of 3.14 and an enzyme activity (Grans; N202 normal) of 2.70. It also gave an enzyme activity (Grans; N206 normal) of 6.01, an enzyme activity (Grans; P68 tachycardia) of 2.52 and an enzyme activity (Grans; P69 pancreatic CA) of 3.53. The enzyme activity (Grans; P70 cirrhosis/hemobilia) was 2.20 and the enzyme activity (Grans; P71 ac. pyelonephritis) was 4.00.

Molecule CC(C)[C@H](N)C(=O)N[C@@H](CO)C(=O)Nc1ccc2c(c1)Oc1cc(NC(=O)[C@H](CO)NC(=O)[C@@H](N)C(C)C)ccc1C21OC(=O)c2ccccc21 [VS, (H--L--Val--Ser)2 Rho 110-2TFA] has an enzyme activity (Lymphs; J4 11/21/91 acute leuk.) of 0.05, an enzyme activity (Lymphs; J4 12/2/91 AL) of 0.03 and an enzyme activity (Lymphs; J4 12/3/91 acute leuk.) of 0.04. It also gave an enzyme activity (Lymphs; J5 11/27/91 AML) of 0.05, an enzyme activity (Lymphs; J19 11/27/91 CLL) of 0.01 and an enzyme activity (Lymphs; J22 12/2/91 AML) of 0.01. It also gave an enzyme activity (Lymphs; J22 12/9/91 AML) of 0.04, an enzyme activity (Lymphs; N99° normal) of 0.03 and an enzyme activity (Lymphs; N191 normal) of 0.14. It also gave an enzyme activity (Lymphs; N192 normal) of 0.08, an enzyme activity (Lymphs; N193 normal) of 0.09 and an enzyme activity (Lymphs; N194 normal) of 0.07. For the same molecule, the enzyme activity (Lymphs; N195 normal) was 0.06, the enzyme activity (Lymphs; N197 normal) was 0.11 and the enzyme activity (Lymphs; N200 normal) was 0.06. For the same molecule, the enzyme activity (Lymphs; N201 normal) was 0.07, the enzyme activity (Lymphs; N202 normal) was 0.04 and the enzyme activity (Lymphs; N206 normal) was 0.28. For the same molecule, the enzyme activity (Lymphs; P68 tachycardia) was 0.05, the enzyme activity (Lymphs; P69 pancreatic CA) was 0.18 and the enzyme activity (Lymphs; P70 cirrhosis/hemobilia) was 0.04. For the same molecule, the enzyme activity (Lymphs; P71 ac. pyelonephritis) was 0.08, the enzyme activity (Grans; J4 11/21/91 acute leuk.) was 0.37 and the enzyme activity (Grans; J4 12/2/91 AL) was 0.14. It also gave an enzyme activity (Grans; J4 12/3/91 acute leuk.) of 0.23, an enzyme activity (Grans; J5 11/27/91 AML) of 1.13 and an enzyme activity (Grans; J19 11/27/91 CLL) of 2.83. The enzyme activity (Grans; J22 12/2/91 AML) was 0.22, the enzyme activity (Grans; J22 12/9/91 AML) was 0.32 and the enzyme activity (Grans; N99° normal) was 0.14. It also gave an enzyme activity (Grans; N191 normal) of 0.64, an enzyme activity (Grans; N192 normal) of 0.40 and an enzyme activity (Grans; N193 normal) of 0.44. It also gave an enzyme activity (Grans; N194 normal) of 0.29, an enzyme activity (Grans; N195 normal) of 0.37 and an enzyme activity (Grans; N197 normal) of 0.58. It also gave an enzyme activity (Grans; N200 normal) of 0.24, an enzyme activity (Grans; N201 normal) of 0.32 and an enzyme activity (Grans; N202 normal) of 0.24. It also gave an enzyme activity (Grans; N206 normal) of 1.03, an enzyme activity (Grans; P68 tachycardia) of 0.33 and an enzyme activity (Grans; P69 pancreatic CA) of 0.57. It also gave an enzyme activity (Grans; P70 cirrhosis/hemobilia) of 0.26 and an enzyme activity (Grans; P71 ac. pyelonephritis) of 0.69.

C[C@H](N)C(=O)NCC(=O)Nc1ccc2c(c1)Oc1cc(NC(=O)CNC(=O)[C@H](C)N)ccc1C21OC(=O)c2ccccc21 [Ala-Gly] was tested, and the “effect of DTE on sensitivity” value (enzyme) was “does not change the sensitivity”.
